Measurements published in PubChem BioAssay AID330 (DTP/NCI, 2004).
Several values for one entry are separate records, joined by “and”; a condition that tells them apart may be missing. Equal entries are not always repeated. Inconclusive results and toxic doses are left out.

System: P388 leukemia ip, CD2F1 mice, survival T/C
Assay: NCI In Vivo Anticancer Drug Screen. Data for tumor model P388 Leukemia (intraperitoneal) in CD2F1 (CDF1) mice
Conditions: endpoint: median survival time, higher = longer survival
Procedure, shortened: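 Mice carrying the transplanted tumor received test compound or vehicle. Survival was recorded in each group, and the value is the treated-group measurement divided by that of the vehicle-treated control group.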

[1] = dose: 12.5 mg/kg/injection, schedule: Q01DX005 (ip), vehicle: saline with Tween-80
[2] = dose: 25.0 mg/kg/injection, schedule: Q01DX005 (ip), vehicle: saline with Tween-80
[3] = dose: 50.0 mg/kg/injection, schedule: Q01DX005 (ip), vehicle: saline with Tween-80
[4] = dose: 100.0 mg/kg/injection, schedule: Q01DX005 (ip), vehicle: saline with Tween-80
[5] = dose: 200.0 mg/kg/injection, schedule: Q01DX005 (ip), vehicle: saline with Tween-80
[6] = dose: 100.0 mg/kg/injection, schedule: Q01DX009 (ip), vehicle: saline with Tween-80
[7] = dose: 100.0 mg/kg/injection, schedule: Q01DX001 (ip), vehicle: Klucel (hydroxypropylcellulose) (HPC)
[8] = dose: 200.0 mg/kg/injection, schedule: Q01DX001 (ip), vehicle: Klucel (hydroxypropylcellulose) (HPC)
[9] = dose: 400.0 mg/kg/injection, schedule: Q01DX001 (ip), vehicle: Klucel (hydroxypropylcellulose) (HPC)
[10] = dose: 100.0 mg/kg/injection, schedule: Q04DX003 (ip), vehicle: saline with Tween-80
[11] = dose: 200.0 mg/kg/injection, schedule: Q04DX003 (ip), vehicle: saline with Tween-80
[12] = dose: 50.0 mg/kg/injection, schedule: Q01DX009 (ip), vehicle: saline
[13] = dose: 100.0 mg/kg/injection, schedule: Q01DX009 (ip), vehicle: saline
[14] = dose: 200.0 mg/kg/injection, schedule: Q01DX009 (ip), vehicle: saline
[15] = dose: 100.0 mg/kg/injection, schedule: Q01DX009 (ip), vehicle: Klucel (hydroxypropylcellulose) (HPC)

In the case of `CC(/C=C/C1OC(=O)C=CC1C)=C\C(C)C/C=C/C(C)=C/C(C)C(=O)C(C)C(O)C(C)C/C(C)=C/C(=O)O` (stereo not drawn), the T/C (dose: 2.5 micrograms/kg/injection, schedule: Q01DX005 (ip), vehicle: saline + alcohol) is reported as 101 % of control, the T/C (dose: 5.0 micrograms/kg/injection, schedule: Q01DX005 (ip), vehicle: saline + alcohol) is reported as 99 % of control and the T/C (dose: 10.0 micrograms/kg/injection, schedule: Q01DX005 (ip), vehicle: saline + alcohol) is reported as 106 % of control. The T/C (dose: 20.0 micrograms/kg/injection, schedule: Q01DX005 (ip), vehicle: saline + alcohol) was 100 % of control, the T/C (dose: 100.0 micrograms/kg/injection, schedule: Q01DX005 (ip), vehicle: alcohol) was 150 % of control and the T/C (dose: 200.0 micrograms/kg/injection, schedule: Q01DX005 (ip), vehicle: alcohol) was 159 % of control.
`CCc1nc(N)nc(N)c1-c1ccc(N2CCNCC2)c([N+](=O)[O-])c1` was tested, and the T/C (dose: 60.0 mg/kg/injection, schedule: Q01DX005 (ip), vehicle: saline with Tween-80) was 106 % of control and the T/C (dose: 120.0 mg/kg/injection, schedule: Q01DX005 (ip), vehicle: saline with Tween-80) was 112 % of control.
In the case of `COc1ccc2nc(N/N=C/c3cccc(C)n3)cc(C)c2c1`, the T/C [1] is reported as 100 % of control, the T/C [2] is reported as 96 % of control and the T/C [3] is reported as 94 % of control and 95 % of control. The T/C [4] was 114 % of control and the T/C [5] was 116 % of control.
`S=c1nc[nH]c2ccc3[nH]ncc3c12` was tested, and the T/C (dose: 6.25 mg/kg/injection, schedule: Q01DX005 (ip), vehicle: saline with Tween-80) was 93 % of control, the T/C [1] was 90 % of control and the T/C [2] was 92 % of control.
In the case of `COc1ccc2ccccc2c1/C=N/N1CCCCC1`, the T/C [6] is reported as 100 % of control, the T/C (dose: 200.0 mg/kg/injection, schedule: Q01DX009 (ip), vehicle: saline with Tween-80) is reported as 104 % of control and the T/C (dose: 400.0 mg/kg/injection, schedule: Q01DX009 (ip), vehicle: saline with Tween-80) is reported as 95 % of control.
For `O=C1NN2CCN=C2c2ccncc21`, the T/C (dose: 50.0 mg/kg/injection, schedule: Q01DX005 (ip), vehicle: saline) was 97 % of control, the T/C (dose: 100.0 mg/kg/injection, schedule: Q01DX005 (ip), vehicle: saline) was 103 % of control and the T/C (dose: 200.0 mg/kg/injection, schedule: Q01DX005 (ip), vehicle: saline) was 100 % of control.
`O=C(O)C1=C(C(=O)O)CCC1` was tested, and the T/C (dose: 25.0 mg/kg/injection, schedule: Q01DX009 (ip), vehicle: distilled water + Tween-80) was 100 % of control, the T/C (dose: 50.0 mg/kg/injection, schedule: Q01DX009 (ip), vehicle: distilled water + Tween-80) was 91 % of control and the T/C (dose: 100.0 mg/kg/injection, schedule: Q01DX009 (ip), vehicle: distilled water + Tween-80) was 89 % of control.
`CC(C)(O)c1ccccc1S(=O)c1ccccc1` (stereo not drawn) was tested, and the T/C [7] was 101 % of control, the T/C [8] was 100 % of control and the T/C [9] was 92 % of control.
For `C[C@]12CCC(=O)C=C1CC[C@H]1[C@@H]3CC[C@](O)(C(=O)CF)[C@@]3(C)C[C@H](O)[C@@]12F`, the T/C (dose: 3.12 mg/kg/injection, schedule: Q01DX009 (ip), vehicle: saline) was 105 % of control, the T/C (dose: 6.25 mg/kg/injection, schedule: Q01DX009 (ip), vehicle: saline) was 102 % of control and the T/C (dose: 12.5 mg/kg/injection, schedule: Q01DX009 (ip), vehicle: saline) was 118 % of control. For the same compound, the T/C (dose: 25.0 mg/kg/injection, schedule: Q01DX009 (ip), vehicle: saline) was 90 % of control.
`CSc1nccc(=O)n1-c1ccccc1Cl` was tested, and the T/C [10] was 109 % of control and the T/C [11] was 114 % of control.
`NC(=S)CCCCCC(N)=S` was tested, and the T/C [3] was 103 % of control, the T/C [4] was 111 % of control and the T/C [5] was 103 % of control.
`CC(N)CC(N)CC(=O)O` (stereo not drawn) was tested, and the T/C (dose: 60.0 mg/kg/injection, schedule: Q01DX005 (ip), vehicle: saline) was 100 % of control and 99 % of control, the T/C (dose: 120.0 mg/kg/injection, schedule: Q01DX005 (ip), vehicle: saline) was 102 % of control and 100 % of control and the T/C (dose: 240.0 mg/kg/injection, schedule: Q01DX005 (ip), vehicle: saline) was 90 % of control and 91 % of control.
`CC1=NCc2nn(C)nc2N1` was tested, and the T/C [12] was 100 % of control, the T/C [13] was 100 % of control and the T/C [14] was 97 % of control.
`CC[n+]1c(-c2ccccc2)c2cc(NCCCN)ccc2c2ccc(N)cc21` was tested, and the T/C (dose: 1.25 mg/kg/injection, schedule: Q01DX009 (ip), vehicle: water) was 97 % of control, the T/C (dose: 2.5 mg/kg/injection, schedule: Q01DX009 (ip), vehicle: water) was 116 % of control and the T/C (dose: 5.0 mg/kg/injection, schedule: Q01DX009 (ip), vehicle: water) was 103 % of control. The T/C (dose: 10.0 mg/kg/injection, schedule: Q01DX009 (ip), vehicle: water) was 115 % of control and the T/C (dose: 20.0 mg/kg/injection, schedule: Q01DX009 (ip), vehicle: water) was 116 % of control.
In the case of `CS(=O)(=O)OCCN(CCOS(C)(=O)=O)c1ccc([N+](=O)[O-])cc1[N+](=O)[O-]`, the T/C [7] is reported as 88 % of control, the T/C [8] is reported as 100 % of control and the T/C [9] is reported as 103 % of control.
`C=[CH][Sn][CH2]CCC` was tested, and the T/C [15] was 112 % of control.
In the case of `CC(=O)Nc1cccc(N)c1`, the T/C (dose: 33.0 mg/kg/injection, schedule: Q04DX003 (ip), vehicle: saline) is reported as 95 % of control, the T/C (dose: 50.0 mg/kg/injection, schedule: Q04DX003 (ip), vehicle: saline) is reported as 95 % of control and the T/C (dose: 75.0 mg/kg/injection, schedule: Q04DX003 (ip), vehicle: saline) is reported as 100 % of control.
`C/C(=N\NC(=S)Nc1ccc(C(=O)O)cc1C)c1ccc2ccccc2n1` was tested, and the T/C [3] was 109 % of control, the T/C [4] was 107 % of control and the T/C [5] was 119 % of control.
For `CN1C(=O)C(CC(N)=O)NC1=S` (stereo not drawn), the T/C (dose: 60.0 mg/kg/injection, schedule: Q01DX005 (ip), vehicle: Klucel (hydroxypropylcellulose) (HPC)) was 95 % of control, the T/C (dose: 120.0 mg/kg/injection, schedule: Q01DX005 (ip), vehicle: Klucel (hydroxypropylcellulose) (HPC)) was 86 % of control and the T/C (dose: 240.0 mg/kg/injection, schedule: Q01DX005 (ip), vehicle: Klucel (hydroxypropylcellulose) (HPC)) was 93 % of control.
`CSc1nc(Cl)c(Br)c(Sc2nc(N)nc3nc[nH]c23)n1` was tested, and the T/C (dose: 50.0 mg/kg/injection, schedule: Q01DX009 (ip), vehicle: saline with Tween-80) was 122 % of control, the T/C [6] was 109 % of control and the T/C [10] was 118 % of control. The T/C [11] was 150 % of control.
For `CS(=O)(=O)CS(=O)(=O)OCCBr`, the T/C [1] was 98 % of control, the T/C [2] was 123 % of control and the T/C [3] was 159 % of control. The T/C [4] was 226 % of control.
`O=C(NC(Sc1ccc(Cl)cc1)C(=O)O)c1ccccc1` (stereo not drawn) was tested, and the T/C (dose: 50.0 mg/kg/injection, schedule: Q01DX009 (ip), vehicle: Klucel (hydroxypropylcellulose) (HPC)) was 104 % of control, the T/C [15] was 94 % of control and the T/C (dose: 200.0 mg/kg/injection, schedule: Q01DX009 (ip), vehicle: Klucel (hydroxypropylcellulose) (HPC)) was 94 % of control.
With `COc1ccc(/C=C/c2ccnnc2)cc1` the T/C [12] was 99 % of control and 102 % of control, the T/C [13] was 108 % of control and the T/C [14] was 99 % of control and 94 % of control.
With `CC1(O)/C=C\C=C(\CO)C2CC(C)(C)C2(O)CC1` (stereo not drawn) the T/C (dose: 6625.0 micrograms/kg/injection, schedule: Q01DX005 (ip), vehicle: Klucel (hydroxypropylcellulose) (HPC)) was 100 % of control, the T/C (dose: 13250.0 micrograms/kg/injection, schedule: Q01DX005 (ip), vehicle: Klucel (hydroxypropylcellulose) (HPC)) was 98 % of control and the T/C (dose: 26500.0 micrograms/kg/injection, schedule: Q01DX005 (ip), vehicle: Klucel (hydroxypropylcellulose) (HPC)) was 94 % of control. The T/C (dose: 53000.0 micrograms/kg/injection, schedule: Q01DX005 (ip), vehicle: Klucel (hydroxypropylcellulose) (HPC)) was 87 % of control.
For `CC1CN1P(=S)(N1CCCC1)N1CC1C` (stereo not drawn), the T/C (dose: 64.0 mg/kg/injection, schedule: Q04DX003 (ip), vehicle: saline with Tween-80) was 116 % of control, the T/C (dose: 66.0 mg/kg/injection, schedule: Q01DX009 (ip), vehicle: saline with Tween-80) was 150 % of control and the T/C [6] was 150 % of control. The T/C (dose: 150.0 mg/kg/injection, schedule: Q01DX009 (ip), vehicle: saline with Tween-80) was 86 % of control, the T/C [11] was 159 % of control and the T/C (dose: 256.0 mg/kg/injection, schedule: Q04DX003 (ip), vehicle: saline with Tween-80) was 100 % of control.
In the case of `Cc1ccc(NC(=S)SCc2ccccc2)cc1Cl`, the T/C (dose: 100.0 mg/kg/injection, schedule: Q04DX002 (ip), vehicle: saline) is reported as 98 % of control, the T/C (dose: 200.0 mg/kg/injection, schedule: Q04DX002 (ip), vehicle: saline) is reported as 100 % of control and the T/C (dose: 400.0 mg/kg/injection, schedule: Q04DX002 (ip), vehicle: saline) is reported as 106 % of control.
